In article PMC4583475, “Receptor Polymorphism and Genomic Structure Interact to Shape Bitter Taste Perception” (PLoS Genetics, 2015):

What was measured:
[1] = test system: bitter taste perception of 48 Caucasian subjects; assay: Human psychophysical bitter taste tests (4-AFC recognition thresholds, gLMS intensity ratings); format: in vivo; conditions: for concentration perceived as weakly bitter, fold range across subjects / concentration perceived as weakly bitter, mode: gLMS weak intensity
Procedure: All were pre-screened to avoid inclusion of individuals with health problems and overt taste pathologies; pregnant and breast-feeding women were also excluded. Each subject participated in the entire course of the study, which included one training session and nine experimental sessions. Visits consisted of DNA collection and psychophysical tests for genotyping and phenotypic analyses, respectively. General taste abilities were also assessed for the bitter, salty, sour, and sweet taste during the first session.
Experiments were conducted at the sensory analysis laboratory of the German Institute of Human Nutrition Potsdam-Rehbruecke, according to good practice guidelines. […] Perceived bitter taste intensities were rated on the general Labelled Magnitude Scale (gLMS; [72–74]). […] For each 4-AFC test, four coded samples containing 10 ml solution were presented simultaneously; one containing the bitter tastant diluted in mineral water (Evian; Danone, Paris, France) and three containing mineral water only. At each concentration, subjects were challenged to identify the different sample, specify whether the quoted sample tasted bitter, and rate the perceived bitter intensity. Tests were performed with nose clips and oral rinsing, with a 45 s pause between concentrations. Training sessions were first used to familiarize subjects with the experimental procedures, and secondly, to assess general taste abilities. Concentration series consisted of geometric sequences of […], with a 1.5 common ratio and the following concentration ranges: 3.5x10^-5–2.0x10^-3M, 6.9x10^-4–4.0x10^-2 M, 2.6x10^-4–1.5x10^-2 M, 6.9x10^-4–4.0x10^-2 M, for salicin, sodium chloride, citric acid, and sucrose used as reference tastants for bitter, salty, sour, and sweet taste, respectively. Following training, subjects tested each tastant in triplicate over nine sessions. Latin square designs extended for first-order carry-over effects were used to counterbalance presentation order of the test compounds over the test sessions, across subjects and for each test compound, as well as presentation order of the samples at each concentration across both repetitions and subjects. Sensory sessions were monitored and data automatically collected (Fizz; Biosystèmes, Couternon, France).
Detection and recognition probabilities of the bitter samples were analysed per repetition and subject. Relationships between probabilities (detection or recognition probabilities) and concentrations were fitted by a logistic regression model using the maximum-likelihood method. Threshold value and slope of the logistic curves were then obtained per repetition and subject, using a self-implemented toolbox (Matlab; The MathWorks Inc.). […] Where required, outliers were discarded according to the Peirce’s criterion. Perceived intensities, expressed in percentage of the scale length, were analysed similarly.

TAS2R30-H1 = assay: Calcium imaging in HEK 293T Gα16gust44 cells transfected with TAS2R30-H1; format: cell-based, human; conditions: for threshold: first concentration eliciting significant receptor activation
Source text: (§1) Allelic responses to agonists were quantified using in vitro heterologous expression assays designed in previous studies of TAS2R receptor function, which successfully mimic responses in vivo with respect to both magnitude and concentration range [17, 23, 25, 26, 46]. DNA fragments containing TAS2R coding sequences were first amplified from genomic DNA by PCR using a proofreading polymerase (PfuUltra II Fusion HotStart DNA Polymerase; Agilent Technologies, Santa Clara, CA, USA) and cloned into a plasmid vector according to the manufacturer’s protocol (Zero Blunt TOPO PCR Cloning Kit; Life Technologies). A second PCR was performed using specific cloning primers to facilitate subcloning into the expression vector, which was then modified to add an N-terminal signal for cell surface localisation and a C-terminal epitope for immunocytochemical detection to the receptor sequence (Fast Link DNA Ligation Kit; Epicentre, Illumina Inc., Madison, WI, USA) (pcDNA5/FRT Mammalian Expression Vector; Life Technologies). Empty vector was used as a negative control.
(§2) Functional assays were carried out in HEK 293T cells stably expressing the G protein chimera Gα16gust44 and transiently transfected with TAS2R alleles subcloned into the expression vector [78]. Calcium imaging was performed using an automated fluorometric imaging plate reader by exposing transfected cells to test compounds dissolved in assay buffer or to assay buffer alone (FLIPR Tetra; Molecular Devices, LLC, Sunnyvale, CA, USA). Changes in cytosolic calcium levels were monitored by measuring fluorescence intensity of a calcium-sensitive dye previously added (Fluo-4 AM; Life Technologies). Six replicates were carried out for each bitter stimulus, on separate experimental days, with each replicate consisting of concentration series of each bitter tastant.
(§3) Prior to final analysis, fluorescence data from functional assays, expressed in relative fluorescence units (RFU), underwent three corrections. First, a correction calculated from baseline values was applied to compensate for well-to-well fluctuations. A second correction calculated from negative control values was applied to correct for receptor independent artefacts and signal drift. A third correction calculated from positive control values was applied to facilitate comparison of data obtained from different experimental days. Fluorescence ratios ((F-F0)/F0), obtained by subtracting the background fluorescence from fluorescence peak height and then dividing the difference by the background fluorescence, were then used for data analysis. Variance analyses were performed, followed by Bonferroni multiple comparisons tests (SPSS 20; IBM Corporation, Armonk, NY, USA). Threshold response values were then defined as the first concentration eliciting a significant activation of the receptor, with empty vector acting as a negative control. Finally, dose-response curves were fitted to the Hill equation by nonlinear regression in order to determine half maximal effective concentrations (EC50) and maximal amplitude (SigmaPlot; Systat Software Inc., Chicago, IL, USA).

TAS2R30-H2 = assay: Calcium imaging in HEK 293T Gα16gust44 cells transfected with TAS2R30-H2; format: cell-based, human; conditions: for threshold: first concentration eliciting significant receptor activation
Source text: as §1, §2, §3

TAS2R43-H1 = assay: Calcium imaging in HEK 293T Gα16gust44 cells transfected with TAS2R43-H1; format: cell-based, human; conditions: first concentration eliciting significant receptor activation
Source text: as §1, §2
as §3, with “Threshold response values were then defined as the first concentration eliciting a significant activation of the receptor, with empty vector acting as a negative control. Finally, dose-response curves were fitted to the Hill equation by nonlinear regression in order to determine half maximal effective concentrations (EC50) and maximal amplitude (SigmaPlot; Systat Software Inc., Chicago, IL, USA).” left out

TAS2R43-H2 = assay: Calcium imaging in HEK 293T Gα16gust44 cells transfected with TAS2R43-H2; format: cell-based, human; conditions: first concentration eliciting significant receptor activation
Source text: as §1, §2
as §3, with “Threshold response values were then defined as the first concentration eliciting a significant activation of the receptor, with empty vector acting as a negative control. Finally, dose-response curves were fitted to the Hill equation by nonlinear regression in order to determine half maximal effective concentrations (EC50) and maximal amplitude (SigmaPlot; Systat Software Inc., Chicago, IL, USA).” left out

TAS2R46-H1 = molecular target: T1, TAS2R46-H1 (Homo sapiens, UniProt P59540); assay: Calcium imaging in HEK 293T Gα16gust44 cells transfected with TAS2R46-H1; format: cell-based; conditions: for threshold: first concentration eliciting significant receptor activation
T1 construct: N-terminal signal for cell surface localisation (N); expressed in transfected cells; host or cells: HEK 293T cells stably expressing the G protein chimera Gα16gust44
T1 sequence (P59540 1-309): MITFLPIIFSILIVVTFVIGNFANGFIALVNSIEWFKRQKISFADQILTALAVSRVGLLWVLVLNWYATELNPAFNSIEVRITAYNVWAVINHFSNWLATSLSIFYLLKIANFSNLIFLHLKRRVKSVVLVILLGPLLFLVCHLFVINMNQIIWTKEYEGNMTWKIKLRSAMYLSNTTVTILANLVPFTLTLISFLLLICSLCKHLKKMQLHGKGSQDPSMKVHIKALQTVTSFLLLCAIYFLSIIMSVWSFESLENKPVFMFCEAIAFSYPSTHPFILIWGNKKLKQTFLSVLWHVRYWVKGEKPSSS
Source text: as §1, §2, §3

TAS2R46-H2 = molecular target: T2, TAS2R46-H2 (Homo sapiens, UniProt P59540); assay: Calcium imaging in HEK 293T Gα16gust44 cells transfected with TAS2R46-H2; format: cell-based; conditions: TAS2R46-H2, truncated variant (premature stop codon)
T2 construct: TAS2R46-H2, a truncated, six-transmembrane variant of the receptor; N-terminal signal for cell surface localisation (N); expressed in transfected cells; host or cells: HEK 293T cells stably expressing the G protein chimera Gα16gust44
T2 sequence (P59540 1-249 limits assumed): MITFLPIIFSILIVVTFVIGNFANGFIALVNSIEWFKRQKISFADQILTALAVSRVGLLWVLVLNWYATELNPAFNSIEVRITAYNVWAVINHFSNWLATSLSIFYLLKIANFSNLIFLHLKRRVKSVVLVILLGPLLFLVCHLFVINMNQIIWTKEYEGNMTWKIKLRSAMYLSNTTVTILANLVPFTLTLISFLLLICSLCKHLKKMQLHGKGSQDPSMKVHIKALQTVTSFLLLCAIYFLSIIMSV
Source text: as §1, §2, §3

TAS2R46-H3 = assay: Calcium imaging in HEK 293T Gα16gust44 cells transfected with TAS2R46-H3; format: cell-based, human; conditions: for threshold: first concentration eliciting significant receptor activation
Source text: as §1, §2, §3

[2] = test system: TAS2R30, -31, -43, and -46; assay: Calcium imaging functional assays, statements across TAS2R loci (variants not resolved); format: cell-based, human
Source text: as §1
as §2, with “Six replicates were carried out for each bitter stimulus, on separate experimental days, with each replicate consisting of concentration series of each bitter tastant.” left out
Prior to final analysis, fluorescence data from functional assays, expressed in relative fluorescence units (RFU), underwent three corrections. First, a correction calculated from baseline values was applied to compensate for well-to-well fluctuations. A second correction calculated from negative control values was applied to correct for receptor independent artefacts and signal drift. […]

[3] = test system: every known TAS2R in humans; design: method as in PMID 20022913; conditions: complete TAS2R family; cited from earlier work

EC50 (TAS2R30-H1) | EC50 (TAS2R30-H2) | EC50 (TAS2R46-H1) | maximum amplitude (TAS2R46-H1) | threshold (TAS2R46-H1) | receptor variant response (TAS2R46-H2) | Molecule | concentration perceived as strongly bitter, fold range across subjects ([1]; gLMS strong intensity) | concentration perceived as weakly bitter, fold range across subjects [1] | concentration perceived as weakly bitter, mode [1] | maximum amplitude (TAS2R30-H1) | threshold (TAS2R30-H1) | maximum amplitude (TAS2R30-H2) | threshold (TAS2R30-H2) | threshold (TAS2R46-H3) | TAS2Rs responsive in published receptor-agonist inventory [3] | recognition threshold, fold range across subjects ([1]; 48 human subjects) | further results
0.41 µM | 0.39 µM | 67 µM | 0.57 ΔF/F | 30 µM | not activated at any concentration | amarogentin | less than 4 fold | 17 fold | 50 nM | 0.50 ΔF/F | 10 nM | 0.12 ΔF/F | 300 nM | 100 µM | TAS2R1, -4, -39, -43, -46, -30, and -50 | – | bitter taste recognition threshold, mode of distribution ([1]; 48 human subjects): 40 nM; threshold (TAS2R43-H1): 300 µM; threshold (TAS2R43-H2): 300 µM; activation concentration of TAS2R43 relative to TAS2R30 ([2]; fold higher than TAS2R30): 3000 fold
– | – | – | – | – | least sensitive | COC1=C[C@@H](C)[C@@H]2C[C@H]3OC(=O)C[C@H]4C(C)=C(OC)C(=O)[C@H]([C@@]2(C)C1=O)[C@@]34C [quassin] | 8 fold | 26 fold | – | – | – | – | – | – | – | 38 fold | receptor variant response (TAS2R30-H1): responding in ranges matching phenotypic recognition threshold; receptor variant response (TAS2R46-H1): most sensitive; receptor variant response (TAS2R46-H3): intermediate; TAS2Rs activated in vitro [2]: only TAS2R30 and TAS2R46
3.1 µM | 1.3 µM | 11 µM | 0.63 ΔF/F | 3 µM | no response at any concentration | CC1=C[C@H]2[C@H]3[C@H](C(C)=C4[C@H]5OC(=O)[C@@H](C)[C@@H]5CC[C@](C)(O)[C@@H]43)[C@@]13[C@@H]2[C@@](C)(O)CC[C@H]1[C@H](C)C(=O)O[C@@H]13 [absinthin] | 5 fold | 15 fold | 390 nM | 0.41 ΔF/F | 300 nM | 0.15 ΔF/F | 1000 nM | 10 µM | TAS2R30 and -46 | 40 fold | concentration perceived as strongly bitter, mode ([1]; gLMS strong intensity): 1.3 µM; EC50 (TAS2R46-H3): 14 µM; maximum amplitude (TAS2R46-H3): 0.48 ΔF/F
